Earlier results, collected in patent US12589095B2, “Unit dosage form for transmucosal drug delivery of an active pharmaceutical ingredient” (Primo Pharmatech LLC, priority 2019, dated 2026).

Settings: known / published value; cited from earlier work

Molecule	HLB
CCCCCCCC/C=C\CCCCCCCC(=O)[O-].[K+] [Potassium oleate]	18.0
CCCCCCCC/C=C\CCCCCCCC(=O)OCC(O)CO (stereo not shown) [Glyceryl monooleate]	3.4
CCCCCCCCCCCCCCCCCC(=O)OCC(O)CO (stereo not shown) [Glyceryl monostearate (Tegin), Glyceryl monostearate]	4.7
CCCCCCCC/C=C\CCCCCCCC(=O)O [Oleic acid]	1.0
Polyoxyethylene lauryl ether [Polyoxyethylene lauryl ether (G-3705)]	10.5
Sorbitan monolaurate [SPAN 20]	SPAN 20 (HLB8.6)
Glyceryl dioleate	1.8
Polyethylene lauryl ether [Polyethylene lauryl ether (Brij 30)]	8.6
sorbitan monooleate [Span 80]	4.3
Polyethylene glycol 400 monolaurate	12.8
CCCCCCCCCCCCCCCCCC(=O)OCCOCCO [Diethylene glycol monostearate]	4.3
Polyoxyethylene monostearate [Polyoxyethylene monostearate (Myrj 45)]	10.8
CCCCCCCC/C=C\CCCCCCCC(=O)[O-].[Na+] [Sodium oleate]	16.9
CCCCCCCCCCCC(=O)OCCOCCO [Diethylene glycol monolaurate]	5.5
Polyoxyethylene sorbitol wax derivative	2.0
CCCCCCCCCCCCCCCCCC(=O)OCC(O)CO (stereo not shown) [Glyceryl monostearate]	2.1

Same assay, conditions: known / published value; listed as Oleic Acid; cited from earlier work

Molecule	HLB
CCCCCCCC/C=C\CCCCCCCC(=O)O [Oleic acid]	1

Same assay, conditions: known / published value; listed as Sorbitan mono-oleate (Span 80); cited from earlier work

Molecule	HLB
sorbitan monooleate [Span 80]	3.8

Same assay, conditions: known / published value; listed as Sorbitan monolaurate (Span 20); cited from earlier work

Molecule	HLB
Sorbitan monolaurate [SPAN 20]	6.1
